The values below come from ChEMBL document CHEMBL5036383, “Azapodophyllotoxin Causes Lymphoma and Kidney Cancer Regression by Disrupting Tubulin and Monoglycerols” (2022).

For test [1], the system named is A498. Description: Anticancer activity against human A498 cells assessed as reduction of cell viability at 70 nM relative to control. It is filed as functional.
For test [2], the system named is A498. Description: Antitumour activity against human A498 cells xenografted in mouse assessed as reduction of tumour weight, IT measured after 1 week. It is filed as functional, cell-based. The note with it: time 1.0 weeks.
For test [3], the system named is CCRF-CEM. Description: Anticancer activity against human CCRF-CEM cells assessed as reduction of cell viability at 70 nM relative to control. It is filed as functional.
Test [4] addresses Tubulin (Homo sapiens) (UniProt P68371+Q9H4B7+P0DPH7+P68366+Q13509+Q71U36+P04350+Q3ZCM7+P07437+P68363+Q9BQE3+Q6PEY2+Q13885+Q9BVA1+Q9BUF5). Description: Inhibition of tubulin polymerization (unknown origin). Format: protein-complex assay.
Test [5] can be described thus: Anticancer activity against human 6780 cell cells assessed as reduction of cell viability at 140 nM relative to control. It is filed as functional.
Test [6] has as its system Mus musculus. Description: Antitubulin activity against human CCRF-CEM cells xenografted in IT dosed mouse assessed as fold decrease in tubulin fine needle aspirates treated for 1 week by nano-immuno assay relative to control. To be noted: time 1 weeks. It is filed as functional.
For test [7], the system named is Mus musculus. Description: Antitubulin activity against human CCRF-CEM cells xenografted in IT dosed mouse assessed as decrease in tubulin level treated for 1 week by nano-immuno assay. Format: functional, organism-based. The note with it: time 1.0 weeks. For orientation: In xenograft studies the graft and the host belong to different species.
Test [8] relates to CCRF-CEM. Description: Inhibition of lipid metabolism in human CCRF-CEM cells assessed as increase in mono glycerol level measured after 1 week treatment by DESI-MSI. It is filed as functional, cell-based. To be noted: time 1.0 weeks.
The nature of test [9]: Anticancer activity against human P493-6 cells assessed as reduction of cell viability at 70 nM relative to control. Format: functional.
The test system of test [10] is CCRF-CEM. Description: Anticancer activity against human CCRF-CEM cells assessed as reduction of cell viability at 140 nM relative to control. It is filed as functional.
Test [11] is described as follows: Anticancer activity against human DND41 cells assessed as reduction of cell viability at 70 nM relative to control. It is filed as functional.
For test [12], the system named is KOPTK1. Description: Anticancer activity against human KOPT-K1 cells assessed as reduction of cell viability at 280 nM relative to control. Format: functional.
Test [13] concerns KOPTK1. Description: Anticancer activity against human KOPT-K1 cells assessed as reduction of cell viability at 70 nM relative to control. It is filed as functional.
Test [14] deals with KOPTK1. Description: Anticancer activity against human KOPT-K1 cells assessed as reduction of cell viability at 140 nM relative to control. It is filed as functional.
Test [15] in a line: Anticancer activity against human 6780 cell cells assessed as reduction of cell viability at 280 nM relative to control. Format: functional.
Test [16] is described as follows: Anticancer activity against human P493-6 cells assessed as reduction of cell viability at 140 nM relative to control. Format: functional.
Test [17] concerns CCRF-CEM. Description: Anticancer activity against human CCRF-CEM cells assessed as reduction of cell viability at 280 nM relative to control. It is filed as functional.
Test [18] in a line: Anticancer activity against transgenic mouse RCC E28 cells assessed as reduction of cell proliferation at 70 nM for 48 hrs relative to control. Format: functional. More on the design: scale not given: the % may be the effect or the level left.
The nature of test [19]: Anticancer activity against transgenic mouse RCC E28 cells assessed as reduction of cell proliferation at 140 nM for 48 hrs relative to 70 uM treatment. Format: functional.
Test [20] in a line: Anticancer activity against human P493-6 cells assessed as reduction of cell viability at 280 nM relative to control. It is filed as functional.
A short description of test [21]: Anticancer activity against human 6780 cell cells assessed as reduction of cell viability at 70 nM relative to control. It is filed as functional.
For test [22], the system named is CCRF-CEM. Description: Antitumour activity against human CCRF-CEM xenografted in mouse assessed as reduction of tumour volume, IT measured after 1 week. To be noted: time 1.0 weeks. Format: functional.

Activity calls are given as the source filed them. The rule behind the calls is not given here.

For `O=C1OCC2=C1C(c1ccccc1)c1cc3c(cc1N2CCO)OCCO3` (stereo not drawn), the Activity in test [1] is listed as 30%.
`O=C1OCC2=C1C(c1cccc(Br)c1)c1cc3c(cc1N2CCO)OCCO3` (stereo not drawn): in test [1], the Activity is 87%.
On the same count and under the same terms, the result for `O=C1OCC2=C1C(c1cccc(C(F)(F)F)c1)c1cc3c(cc1N2CCO)CCC3` (stereo not drawn) reads 83%.
For the molecule `COc1cc(C2C3=C(COC3=O)N(CCO)c3cc4c(cc32)CCC4)cc(OC)c1OC` (stereo not drawn), the outcome in test [2], in test [7] and in test [22] was Active. Moreover, the Activity in [3] is reported as 90%; in [5], 94%; in test [9] it was 85%; in test [10] it was 92%; in [11], 95%; in test [12], 89%. Moreover, the Activity was determined as 85% in test [13]; 87% in test [14]; 96% in test [15]; 90% in [16]; 96% in test [17]; 90% in [18]. The Activity in test [1] was 95%; in test [20], 98%; in test [21] it was 90%. In addition, the inhibition entry in [4] and in [8] was “Active” throughout. For the same molecule, the “fold change (FC)” value in test [6] and in test [19] was 2 in each case.
On to `O=C1OCC2=C1C(c1cccc(Br)c1)c1cc3c(cc1N2CCO)CCC3` (stereo not drawn), for which, in test [1], the Activity worked out at 90%.
As to `O=C1OCC2=C1C(c1ccccc1)c1cc3c(cc1N2CCO)OCO3` (stereo not drawn), the Activity in test [1] is 30%.
In the case of `O=C1OCC2=C1C(c1cccc(C(F)(F)F)c1)c1cc3c(cc1N2CCO)OCCO3` (stereo not drawn), in [1], the Activity is listed as 80%.
